What is called IC50 is the concentration that gives 50% inhibition. By inhibition is commonly meant the percentage by which the read-out fell short of the control. Broadly, the MRT last is the average time that molecules of a dose stay in the body. By Cmax is commonly meant the highest concentration seen after dosing. The term AUC(0-t) denotes the area under the concentration-time curve up to a stated or last time point. Low values mean low exposure, high ones high exposure. What is called AUC is the area under the concentration-time curve, a measure of exposure. Higher therefore signals high exposure. The clearance is the volume of plasma or blood freed of the substance per unit of time. A low value points to a low capacity for elimination. By Tmax is commonly meant the time at which the peak concentration occurs. The term CL/F denotes clearance divided by bioavailability, as obtained after extravascular dosing. A word on the bioavailability: it is the share of a dose that reaches the circulation, judged against a reference dose that is usually intravenous. Lower therefore signals little systemic uptake.

The values below come from ChEMBL document CHEMBL5579823, “Discovery of 7-alkoxybenzofurans as PDE4 inhibitors with hepatoprotective activity in D-GalN/LPS-induced hepatic sepsis” (Eur J Med Chem, 2024).

The target of data set [1] is T1, 3',5'-cyclic-AMP phosphodiesterase 4B (Homo sapiens, UniProt Q07343). Put plainly: Inhibition of PDE4B1 (unknown origin).
T1 sequence (Q07343 whole entry): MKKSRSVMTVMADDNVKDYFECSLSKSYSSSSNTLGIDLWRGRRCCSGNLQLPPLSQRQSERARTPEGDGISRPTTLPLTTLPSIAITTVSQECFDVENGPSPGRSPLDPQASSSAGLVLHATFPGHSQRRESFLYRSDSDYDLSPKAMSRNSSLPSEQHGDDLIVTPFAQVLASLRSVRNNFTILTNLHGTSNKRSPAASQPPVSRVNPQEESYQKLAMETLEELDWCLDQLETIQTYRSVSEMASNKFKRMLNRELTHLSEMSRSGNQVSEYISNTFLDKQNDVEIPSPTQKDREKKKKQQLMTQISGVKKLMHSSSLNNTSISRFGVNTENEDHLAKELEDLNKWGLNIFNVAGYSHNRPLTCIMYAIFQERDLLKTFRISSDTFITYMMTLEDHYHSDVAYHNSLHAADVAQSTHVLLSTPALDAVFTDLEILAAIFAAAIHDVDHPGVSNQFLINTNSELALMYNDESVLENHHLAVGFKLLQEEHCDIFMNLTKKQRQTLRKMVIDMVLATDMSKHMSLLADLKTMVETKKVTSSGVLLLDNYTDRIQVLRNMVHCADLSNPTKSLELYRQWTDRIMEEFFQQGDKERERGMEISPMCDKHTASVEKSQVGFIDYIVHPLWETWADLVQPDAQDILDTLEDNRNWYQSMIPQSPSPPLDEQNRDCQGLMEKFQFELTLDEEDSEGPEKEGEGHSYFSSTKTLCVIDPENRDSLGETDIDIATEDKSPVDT
Data set [2] concerns the target T2, 3',5'-cyclic-AMP phosphodiesterase 4D (Homo sapiens, UniProt Q08499). The data set is described as follows: Inhibition of PDE4D7 (unknown origin).
A short description of data set [3]: Half-life in Sprague-Dawley rat at 5 mg/kg, iv by LC-MS/MS analysis. The class given is ADME, organism-based. The settings on record: in vivo.
Data set [4] addresses T1, 3',5'-cyclic-AMP phosphodiesterase 4B. The data set is described as follows: Inhibition of recombinant human N-terminal GST-tagged PDE4B1 (1 to 736 residues) expressed in Sf9 insect cells using FAM-cyclic-3',5'-AMP as substrate measured after 1 hr by fluorescence polarization assay. In general terms: Fluorescence polarisation rises when a labelled molecule tumbles more slowly, as on binding a larger partner.

The target of data set [5] is cGMP-inhibited 3',5'-cyclic phosphodiesterase 3B (Homo sapiens) (UniProt Q13370). Put plainly: Inhibition of recombinant human N-terminal GST-tagged PDE3B (592 to 1112 residues) expressed in Sf9 insect cells at 10 uM using FAM-cyclic-3',5'-AMP as substrate measured after 1 hr by fluorescence polarization assay relative to control.
Sequence of cGMP-inhibited 3',5'-cyclic phosphodiesterase 3B (Homo sapiens) (Q13370 whole entry, looked up, the tested form may be a part): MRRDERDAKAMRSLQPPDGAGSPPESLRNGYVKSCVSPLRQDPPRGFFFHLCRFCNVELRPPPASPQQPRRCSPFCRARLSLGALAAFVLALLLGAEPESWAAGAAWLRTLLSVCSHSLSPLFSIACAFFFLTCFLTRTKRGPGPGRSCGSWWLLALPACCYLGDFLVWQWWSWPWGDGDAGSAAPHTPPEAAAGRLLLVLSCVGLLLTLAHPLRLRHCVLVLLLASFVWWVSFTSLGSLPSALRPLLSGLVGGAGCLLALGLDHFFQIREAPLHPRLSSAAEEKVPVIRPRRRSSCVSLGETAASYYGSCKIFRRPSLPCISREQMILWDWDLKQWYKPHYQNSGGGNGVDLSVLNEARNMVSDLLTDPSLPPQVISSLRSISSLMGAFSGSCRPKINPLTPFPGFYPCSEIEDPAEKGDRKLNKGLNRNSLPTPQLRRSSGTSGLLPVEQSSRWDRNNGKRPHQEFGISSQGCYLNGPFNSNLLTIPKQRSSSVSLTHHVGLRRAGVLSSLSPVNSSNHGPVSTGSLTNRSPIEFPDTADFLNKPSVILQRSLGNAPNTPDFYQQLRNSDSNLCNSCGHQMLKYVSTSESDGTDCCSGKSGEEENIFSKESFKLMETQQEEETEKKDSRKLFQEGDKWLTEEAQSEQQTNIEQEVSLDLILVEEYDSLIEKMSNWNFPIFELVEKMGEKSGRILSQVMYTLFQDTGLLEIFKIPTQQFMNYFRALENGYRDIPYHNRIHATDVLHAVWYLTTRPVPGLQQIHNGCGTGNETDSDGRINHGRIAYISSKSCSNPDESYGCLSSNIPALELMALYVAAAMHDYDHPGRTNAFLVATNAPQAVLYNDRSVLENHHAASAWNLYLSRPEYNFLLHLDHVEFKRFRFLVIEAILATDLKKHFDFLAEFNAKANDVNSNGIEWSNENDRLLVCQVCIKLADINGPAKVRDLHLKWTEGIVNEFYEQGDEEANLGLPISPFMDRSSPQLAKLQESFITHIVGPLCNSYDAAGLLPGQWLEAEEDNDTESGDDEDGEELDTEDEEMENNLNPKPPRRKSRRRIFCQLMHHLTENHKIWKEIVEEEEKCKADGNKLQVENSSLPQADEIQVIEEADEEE
Data set [6] has as its target cGMP-specific 3',5'-cyclic phosphodiesterase (Homo sapiens) (UniProt O76074). Put plainly: Inhibition of PDE5A (unknown origin) at 10 uM using FAM-cyclic-3',5'-AMP as substrate measured after 1 hr by fluorescence polarization assay relative to control.
Data set [7] deals with High affinity 3',5'-cyclic-AMP phosphodiesterase 7A (Homo sapiens) (UniProt Q13946). Put plainly: Inhibition of PDE7A (unknown origin) at 10 uM using FAM-cyclic-3',5'-AMP as substrate measured after 1 hr by fluorescence polarization assay relative to control.
Sequence of High affinity 3',5'-cyclic-AMP phosphodiesterase 7A (Homo sapiens) (Q13946 whole entry): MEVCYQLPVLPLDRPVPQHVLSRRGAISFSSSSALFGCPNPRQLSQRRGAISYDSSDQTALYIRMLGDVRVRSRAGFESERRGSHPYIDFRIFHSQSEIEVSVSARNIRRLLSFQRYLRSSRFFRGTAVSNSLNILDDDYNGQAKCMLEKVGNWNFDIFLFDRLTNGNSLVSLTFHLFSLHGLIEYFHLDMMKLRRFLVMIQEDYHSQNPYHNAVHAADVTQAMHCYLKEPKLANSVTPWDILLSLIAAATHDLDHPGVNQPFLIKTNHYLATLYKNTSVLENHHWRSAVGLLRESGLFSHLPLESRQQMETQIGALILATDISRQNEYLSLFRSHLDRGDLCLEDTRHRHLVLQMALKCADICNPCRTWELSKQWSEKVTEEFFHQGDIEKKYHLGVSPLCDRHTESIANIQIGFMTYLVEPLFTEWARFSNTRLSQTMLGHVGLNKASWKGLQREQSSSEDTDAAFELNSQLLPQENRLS
Data set [8] deals with High affinity cGMP-specific 3',5'-cyclic phosphodiesterase 9A (Homo sapiens) (UniProt O76083). The data set is described as follows: Inhibition of human N-terminal GST-tagged full-length PDE9A2 expressed in baculovirus infected Sf9 insect cells at 10 uM using FAM-cyclic-3',5'-AMP as substrate measured after 1 hr by fluorescence polarization assay relative to control.
Sequence of High affinity cGMP-specific 3',5'-cyclic phosphodiesterase 9A (Homo sapiens) (O76083 whole entry, the tested form may be a part): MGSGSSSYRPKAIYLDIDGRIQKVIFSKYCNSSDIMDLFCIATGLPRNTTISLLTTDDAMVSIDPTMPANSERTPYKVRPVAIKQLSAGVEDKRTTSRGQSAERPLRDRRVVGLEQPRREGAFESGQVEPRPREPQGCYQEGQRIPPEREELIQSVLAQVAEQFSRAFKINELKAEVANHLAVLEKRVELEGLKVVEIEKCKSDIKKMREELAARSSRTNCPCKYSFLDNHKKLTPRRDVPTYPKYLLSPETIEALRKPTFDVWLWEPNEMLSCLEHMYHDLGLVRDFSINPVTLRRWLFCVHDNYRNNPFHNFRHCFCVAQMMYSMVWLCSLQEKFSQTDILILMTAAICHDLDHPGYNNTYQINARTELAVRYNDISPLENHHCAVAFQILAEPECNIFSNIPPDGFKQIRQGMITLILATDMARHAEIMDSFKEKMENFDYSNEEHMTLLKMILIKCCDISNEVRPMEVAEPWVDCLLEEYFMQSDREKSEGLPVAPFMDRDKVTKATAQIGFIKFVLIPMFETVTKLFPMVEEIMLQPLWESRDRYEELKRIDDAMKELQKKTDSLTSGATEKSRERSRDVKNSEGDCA
Data set [9] concerns the target cGMP-inhibited 3',5'-cyclic phosphodiesterase 3B (Homo sapiens) (UniProt Q13370). Put plainly: Inhibition of recombinant human N-terminal GST-tagged PDE3B (592 to 1112 residues) expressed in Sf9 insect cells at 20 uM using FAM-cyclic-3',5'-AMP as substrate measured after 1 hr by fluorescence polarization assay relative to control.
Data set [10] addresses cGMP-specific 3',5'-cyclic phosphodiesterase (Homo sapiens) (UniProt O76074). Put plainly: Inhibition of PDE5A (unknown origin) at 20 uM using FAM-cyclic-3',5'-AMP as substrate measured after 1 hr by fluorescence polarization assay relative to control.
For data set [11], the target named is High affinity 3',5'-cyclic-AMP phosphodiesterase 7A (Homo sapiens) (UniProt Q13946). Put plainly: Inhibition of PDE7A (unknown origin) at 20 uM using FAM-cyclic-3',5'-AMP as substrate measured after 1 hr by fluorescence polarization assay relative to control.
For data set [12], the target named is High affinity cGMP-specific 3',5'-cyclic phosphodiesterase 9A (Homo sapiens) (UniProt O76083). The data set is described as follows: Inhibition of human N-terminal GST-tagged full-length PDE9A2 expressed in baculovirus infected Sf9 insect cells at 20 uM using FAM-cyclic-3',5'-AMP as substrate measured after 1 hr by fluorescence polarization assay relative to control.

Data set [13] can be described thus: MRT(0 to t) in Sprague-Dawley rat at 5 mg/kg, iv by LC-MS/MS analysis. To be noted: in vivo. The class given is ADME, organism-based.
Data set [14] is described as follows: Cmax in Sprague-Dawley rat at 5 mg/kg, iv by LC-MS/MS analysis. The class given is ADME, organism-based. To be noted: in vivo.
Data set [15] in a line: AUC (0 to t) in Sprague-Dawley rat at 5 mg/kg, iv by LC-MS/MS analysis. The class given is ADME, organism-based. The settings on record: in vivo.
The nature of data set [16]: AUC (0 to infinity) in Sprague-Dawley rat at 5 mg/kg, iv by LC-MS/MS analysis. The settings on record: in vivo. The class given is ADME, organism-based.
Data set [17] can be described thus: Clearance in Sprague-Dawley rat at 5 mg/kg, iv by LC-MS/MS analysis. The class given is ADME, organism-based. To be noted: in vivo.
The nature of data set [18]: Volume of distribution in Sprague-Dawley rat at 5 mg/kg, iv by LC-MS/MS analysis. The class given is ADME, organism-based. To be noted: in vivo.
Data set [19] in a line: Half-life in Sprague-Dawley rat at 5 mg/kg, po by LC-MS/MS analysis. To be noted: in vivo. The class given is ADME, organism-based.
A short description of data set [20]: MRT(0 to t) in Sprague-Dawley rat at 5 mg/kg, po by LC-MS/MS analysis. The settings on record: in vivo. The class given is ADME, organism-based.
The nature of data set [21]: Cmax in Sprague-Dawley rat at 5 mg/kg, po by LC-MS/MS analysis. To be noted: in vivo. The class given is ADME, organism-based.
Data set [22] is described as follows: Tmax in Sprague-Dawley rat at 5 mg/kg, po by LC-MS/MS analysis. The class given is ADME, organism-based. The settings on record: in vivo.
Data set [23] is described as follows: AUC(0 to t) in Sprague-Dawley rat at 5 mg/kg, po by LC-MS/MS analysis. To be noted: in vivo. The class given is ADME, organism-based.
Data set [24] in a line: AUC(0 to infinity) in Sprague-Dawley rat at 5 mg/kg, po by LC-MS/MS analysis. The class given is ADME, organism-based. The settings on record: in vivo.
A short description of data set [25]: Clearance in Sprague-Dawley rat at 5 mg/kg, po by LC-MS/MS analysis. The settings on record: in vivo. The class given is ADME, organism-based.
The nature of data set [26]: Volume of distribution in Sprague-Dawley rat at 5 mg/kg, po by LC-MS/MS analysis. The class given is ADME, organism-based. The settings on record: in vivo.
Data set [27] in a line: Oral bioavailability in Sprague-Dawley rat at 5 mg/kg by LC-MS/MS analysis. The class given is ADME, organism-based. To be noted: in vivo.
The subject of data set [28] is Mus musculus. The data set is described as follows: Hepatoprotective activity in GalN/LPS-induced C57BL/6J mouse hepatic sepsis model assessed as reduction in necrotic morphology at 1 to 3 mg/kg, IG administered once daily for 3 days followed by GalN/LPS addition 1 hr post-last dose measured after 4 hrs by hematoxylin and eosin staining based light microscopy. The settings on record: dose 1-3 mg/kg, time 3.0 day. The class given is functional, organism-based.

Data set [29] concerns Mus musculus. The data set is described as follows: Hepatoprotective activity in GalN/LPS-induced C57BL/6J mouse hepatic sepsis model assessed as reduction in hepatomegaly at 1 to 3 mg/kg, IG administered once daily for 3 days followed by GalN/LPS addition 1 hr post-last dose measured after 4 hrs by hematoxylin and eosin staining based light microscopy. The class given is functional, organism-based. To be noted: dose 1-3 mg/kg, time 3.0 day.

Data set [30] concerns Mus musculus. The data set is described as follows: Hepatoprotective activity in GalN/LPS-induced C57BL/6J mouse hepatic sepsis model assessed as reduction in aggregation of inflammatory cells at 1 to 3 mg/kg, IG administered once daily for 3 days followed by GalN/LPS addition 1 hr post-last dose measured after 4 hrs by hematoxylin and eosin staining based light microscopy. The settings on record: dose 1-3 mg/kg, time 3.0 day. The class given is functional, organism-based.

The test system of data set [31] is Mus musculus. The data set is described as follows: Hepatoprotective activity in GalN/LPS-induced C57BL/6J mouse hepatic sepsis model assessed as reduction in ALT level at 1 to 3 mg/kg, IG administered once daily for 3 days followed by GalN/LPS addition 1 hr post-last dose measured after 4 hrs. The class given is functional, organism-based. The settings on record: dose 1-3 mg/kg, time 3.0 day.

For data set [32], the system named is Mus musculus. Put plainly: Hepatoprotective activity in GalN/LPS-induced C57BL/6J mouse hepatic sepsis model assessed as reduction in AST level at 1 to 3 mg/kg, IG administered once daily for 3 days followed by GalN/LPS addition 1 hr post-last dose measured after 4 hrs. The class given is functional, organism-based. To be noted: dose 1-3 mg/kg, time 3.0 day.

For data set [33], the target named is High affinity cAMP-specific 3',5'-cyclic phosphodiesterase 8A (Homo sapiens) (UniProt O60658). The data set is described as follows: Inhibition of human N-terminal GST-tagged full-length PDE8A1 expressed in baculovirus infected Sf9 insect cells at 10 uM using FAM-cyclic-3',5'-AMP as substrate measured after 1 hr by fluorescence polarization assay relative to control.
Sequence of High affinity cAMP-specific 3',5'-cyclic phosphodiesterase 8A (Homo sapiens) (O60658 whole entry, looked up): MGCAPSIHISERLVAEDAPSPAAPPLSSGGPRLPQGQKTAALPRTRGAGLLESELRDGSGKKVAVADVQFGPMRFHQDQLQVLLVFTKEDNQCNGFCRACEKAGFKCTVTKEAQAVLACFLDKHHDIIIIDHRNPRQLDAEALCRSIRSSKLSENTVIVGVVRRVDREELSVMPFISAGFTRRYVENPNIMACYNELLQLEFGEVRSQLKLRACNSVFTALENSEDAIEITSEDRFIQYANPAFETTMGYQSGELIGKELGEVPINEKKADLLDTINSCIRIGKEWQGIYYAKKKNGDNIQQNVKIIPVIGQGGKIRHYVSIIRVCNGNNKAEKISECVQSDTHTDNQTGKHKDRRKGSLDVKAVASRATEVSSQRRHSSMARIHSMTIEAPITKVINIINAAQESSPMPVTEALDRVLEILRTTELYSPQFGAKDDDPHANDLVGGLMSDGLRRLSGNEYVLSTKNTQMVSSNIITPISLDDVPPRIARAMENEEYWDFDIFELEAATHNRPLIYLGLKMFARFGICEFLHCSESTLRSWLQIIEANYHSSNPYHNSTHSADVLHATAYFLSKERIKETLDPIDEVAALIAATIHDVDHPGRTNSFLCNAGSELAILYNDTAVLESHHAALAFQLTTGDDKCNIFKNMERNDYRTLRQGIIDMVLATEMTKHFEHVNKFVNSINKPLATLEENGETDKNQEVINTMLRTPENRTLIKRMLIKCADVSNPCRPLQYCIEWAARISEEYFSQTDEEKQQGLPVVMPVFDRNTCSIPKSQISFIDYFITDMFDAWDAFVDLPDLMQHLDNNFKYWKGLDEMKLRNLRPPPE

The target is the same in data set [34]. The data set is described as follows: Inhibition of human N-terminal GST-tagged full-length PDE8A1 expressed in baculovirus infected Sf9 insect cells at 20 uM using FAM-cyclic-3',5'-AMP as substrate measured after 1 hr by fluorescence polarization assay relative to control.
Data set [35] has as its target T2, 3',5'-cyclic-AMP phosphodiesterase 4D. Put plainly: Inhibition of human N-terminal GST-tagged PDE4D7 (2 to 748 residues) expressed in baculovirus infected Sf9 insect cells using FAM-cyclic-3',5'-AMP as substrate measured after 1 hr by fluorescence polarization assay.
Data set [36] is described as follows: Oral bioavailability in mouse at 5 mg/kg by LC-MS/MS analysis. The class given is ADME, organism-based. The settings on record: in vivo.
Data set [37] has as its system Mus musculus. The data set is described as follows: Hepatoprotective activity in GalN/LPS-induced C57BL/6J mouse hepatic sepsis model at 3 mg/kg, IG administered once daily for 3 days followed by GalN/LPS addition 1 hr post-last dose measured after 4 hrs by hematoxylin and eosin staining based light microscopy. The class given is functional, organism-based. The settings on record: time 3.0 day.

Activity calls are given as the source filed them. No cut-off for these calls is given here.

T2 sequence (Q08499 whole entry): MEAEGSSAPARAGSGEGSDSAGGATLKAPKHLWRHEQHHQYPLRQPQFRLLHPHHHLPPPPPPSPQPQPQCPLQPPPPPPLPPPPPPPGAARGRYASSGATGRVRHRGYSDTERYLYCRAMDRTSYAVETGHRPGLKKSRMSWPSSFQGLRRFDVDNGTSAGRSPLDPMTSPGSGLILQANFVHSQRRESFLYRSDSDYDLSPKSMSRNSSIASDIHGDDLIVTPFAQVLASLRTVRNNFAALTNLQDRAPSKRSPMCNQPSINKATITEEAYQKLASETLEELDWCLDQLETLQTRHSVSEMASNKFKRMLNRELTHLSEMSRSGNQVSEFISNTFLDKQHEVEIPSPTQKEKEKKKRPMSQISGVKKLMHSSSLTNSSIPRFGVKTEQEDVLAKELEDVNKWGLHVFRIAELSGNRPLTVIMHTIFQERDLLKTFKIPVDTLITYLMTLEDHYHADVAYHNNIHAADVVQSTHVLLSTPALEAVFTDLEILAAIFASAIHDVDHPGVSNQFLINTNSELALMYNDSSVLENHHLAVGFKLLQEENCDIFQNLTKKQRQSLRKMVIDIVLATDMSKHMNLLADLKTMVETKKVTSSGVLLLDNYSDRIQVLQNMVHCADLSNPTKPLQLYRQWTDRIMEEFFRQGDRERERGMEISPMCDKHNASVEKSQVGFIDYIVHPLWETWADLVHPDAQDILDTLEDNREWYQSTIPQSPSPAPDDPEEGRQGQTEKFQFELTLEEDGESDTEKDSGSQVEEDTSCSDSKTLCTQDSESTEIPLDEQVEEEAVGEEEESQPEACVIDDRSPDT

Take `CCNc1cc(C(=O)C2CCCC2)ccc1OC`: the IC50 amounted to 110 nM in [1] and 1610 nM in [2].

Turning to `COc1ccc(C(=O)Cn2ccnc2)c2cc(C3CC3)oc12`, the t1/2 in [3] worked out at 1.29 h; in data set [19], 2 h. In data set [4], the IC50 worked out at 10 nM. For the same molecule, the inhibition in [5] turned out to be 11%; in [6], 9%; in [7], 8%; in data set [8] it was 5%; in [9], 23%; in data set [10], 17%. In addition, the inhibition came out at 15% in [11], 12% in data set [12], 6% in data set [33] and 14% in data set [34]. Also, the MRT last in [13] was 2.31 h; in [20] it was 2.74 h. Moreover, the results for the Cmax in data set [14] and in data set [21] were 1.74 µg/mL and 0.957 µg/mL, respectively. In addition, the figures for the AUC(0-t) in data set [15] and in data set [23] were 5170 ng·h/mL and 3440 ng·h/mL, respectively. The AUC in [16] amounted to 5.29987 µg·h/mL; in [24] it was 3.66979 µg·h/mL. In data set [17], this molecule gave a clearance of 15.8 mL/min/kg. The figures for the Vd in data set [18] and in [26] were 1.76 L/kg and 3.91 L/kg, respectively. Further, the Tmax in [22] came out at 52.8 min. Besides, in [25], the apparent clearance (CL/F) is 22.8 mL/min/kg. Also, in [27], the bioavailability was 66%. The outcome with Mus musculus [28], in the data set on Mus musculus [29], with Mus musculus [30], in the data set on Mus musculus [31] and in the data set with Mus musculus [32] was Active.

With `CC(C)NC(=O)c1ccc(OC(F)F)c(OCC2CC2)c1`, the IC50 in [35] is 47 nM; in [4] it was 31 nM. The molecule further gave a bioavailability in data set [36] below 5%.

For the molecule `COc1ccc(C2CNC(=O)C2)cc1OC1CCCC1` (stereo not drawn), the outcome in the data set on Mus musculus [37] was Active.
